These results are taken from ChEMBL document CHEMBL3739257, “Aryl amide small-molecule inhibitors of microRNA miR-21 function” (Bioorg Med Chem Lett, 2015).

Calls of active or inactive are those of the source. No cut-off for these calls is given here.

Experiment [1] has as its system HeLa. In words: Inhibition of miR-222 expression in human HeLa cells at 10 uM after 48 hrs by qRT-PCR analysis. The experiment is classed as functional, cell-based.
For the next experiment, the system named is Huh-7. In words: Inhibition of microRNA miR-122 expression in human Huh7-psiCHECK cells assessed as luciferase expression at 10 uM after 48 hrs by microplate reader analysis. The experiment is classed as cell-based.
The subject of experiment [2] is HeLa. In words: Inhibition of miR-21 expression in human HeLa cells at 10 uM after 48 hrs by qRT-PCR analysis. The experiment is classed as functional.
Experiment [3] relates to HeLa. Put plainly: Inhibition of miR-17-5p expression in human HeLa cells at 10 uM after 48 hrs by qRT-PCR analysis. The experiment is classed as functional, cell-based.
Experiment [4] concerns HeLa. Put plainly: Inhibition of microRNA miR-21 expression in human HeLa cells assessed as reduction of intracellular miR-21 level by measuring luciferase signal relative to control. The experiment is classed as cell-based.
Another experiment concerns Lampyridae. Put plainly: Inhibition of firefly luciferase at 10 uM preincubated for 1 hr followed by ATP addition measured after 3 mins by CellTiter-Glo assay. In general terms: In ATP-based viability assays light output follows the ATP content of the culture.
The nature of experiment [5]: Inhibition of microRNA miR-21 expression in human HeLa cells assessed as luciferase signal at 10 uM after 48 hrs by microplate reader analysis. The experiment is classed as cell-based.
For experiment [6], the system named is HeLa. Put plainly: Inhibition of primary microRNA miR-21 expression in human HeLa cells assessed as luciferase signal at 10 uM by qRT-PCR analysis relative to control. The experiment is classed as cell-based.
The test system of experiment [7] is HeLa. In words: Inhibition of microRNA miR-21P transfected in human HeLa cells assessed as luciferase signal at 10 uM. The experiment is classed as cell-based.
Experiment [8] deals with HeLa. Put plainly: Inhibition of miR-125b expression in human HeLa cells at 10 uM after 48 hrs by qRT-PCR analysis. The experiment is classed as functional, cell-based. A general note: In qPCR the cycle at which signal appears reflects the starting amount.
In experiment [9] the test system is HeLa. In words: Inhibition of microRNA miR-21 expression in human HeLa cells assessed as luciferase signal at 10 uM after 48 hrs by microplate reader analysis relative to control. The experiment is classed as cell-based.

As usually defined, the inhibition is the drop in the measured response relative to a control, in per cent. For orientation: EC50 means the concentration at which the effect is half-maximal. Consider `COc1ccc(NC(=O)c2ccc(OC)cc2)cc1`, for which the inhibition result in the experiment with HeLa [1], with Huh-7, in the experiment with HeLa [3], in the experiment with Lampyridae, with HeLa [6] and with HeLa [7] was “inactive” in each case. Further, in the experiment on HeLa [8], the inhibition result was “inactive”. The molecule further displayed an inhibition at 10 µM with HeLa [2] of 61%. Besides, the fold change (FC) with HeLa [4] amounted to 2.88. The EC50 in experiment [5] was determined as 0.86 µM. Moreover, the inhibition in the experiment with HeLa [9] was above 100%.
For the molecule `COc1ccc(C(=O)NCCc2ccccn2)cc1`, the fold change (FC) in the experiment with HeLa [4] was determined as 1.
In the case of `CCCNC(=O)c1ccc(OC)c(O)c1`, the fold change (FC) with HeLa [4] was 1.11.
As to `COc1ccc(C(=O)Nc2ccccc2)cc1`, the inhibition entry in the experiment on HeLa [1], in the experiment with HeLa [3], in the experiment with Lampyridae, in the experiment on HeLa [6], with HeLa [7] and in the experiment on HeLa [8] was “inactive” in each case. In addition, 10 µM produced 43% inhibition in the experiment on HeLa [2]. Moreover, the fold change (FC) in the experiment on HeLa [4] worked out at 2.39. Moreover, the EC50 in [5] is 2.3 µM.
`O=C(NCCC1=CCCCC1)c1cccc(O)c1`: the fold change (FC) in the experiment on HeLa [4] worked out at 1.61.
For `O=C(NCCC1=CCCCC1)c1ccc(O)cc1`, the fold change (FC) with HeLa [4] was found to be 1.66.
Consider `COc1ccc(C(=O)NCCc2ccc3ccccc3c2)cc1`, for which the fold change (FC) in the experiment with HeLa [4] is 1.41.
As for `COc1ccc(C(=O)NCCC2=CCCCC2)cc1O`, the fold change (FC) in the experiment with HeLa [4] worked out at 1.63.
For `COc1ccc(C(=O)NCc2ccccc2)cc1`, the fold change (FC) with HeLa [4] was 1.43.
Take `COc1ccc(C(=O)Nc2ccc3ccccc3c2)cc1`: in the experiment on Huh-7, the inhibition entry is “inactive”. Also, the fold change (FC) in the experiment on HeLa [4] is 1.21. Besides, in the experiment with HeLa [9], the inhibition was above 100%.
With `COc1ccc(C(=O)NCCCCc2ccccc2)cc1`, the fold change (FC) with HeLa [4] was found to be 1.03.
Same read-out and setting: in the case of `CCCOc1ccc(C(=O)NCCc2ccccc2)cc1` it was 1.36; in that of `COc1ccc(C(=O)NCCc2ccccc2)cc1O`, 0.95.
With `O=C(NCCC1=CCCCC1)c1ccccc1`, the fold change (FC) in the experiment on HeLa [4] is 1.58.
Regarding `COc1ccc(C(=O)NCCC2=CCCCC2)cc1OC(C)=O`, the fold change (FC) with HeLa [4] is 1.83.
With `O=C(Nc1ccccc1)c1ccccc1`, in the experiment on HeLa [4], the fold change (FC) was 1.49.
Consider `COc1ccc(C(=O)NCCC2CCCCC2)cc1O`, for which the fold change (FC) with HeLa [4] was 1.93.
As to `Nc1ccc(C(=O)NCCc2ccccc2)cc1`, the fold change (FC) with HeLa [4] stood at 1.46.
On the same count and under the same terms, the figure for `COc1ccc(C(=O)NCCC2=CCCCC2)cc1` is 1.05; for `COc1ccc(C(N)=O)cc1` it is 1.11.
Consider `COc1ccc(C(=O)NCCC2=CCCCC2)cc1OC`, for which the inhibition result in the experiment with HeLa [1], in the experiment on Huh-7, with HeLa [3], with Lampyridae, in the experiment on HeLa [6] and in the experiment with HeLa [7] was “inactive” in each case. Also, the inhibition entry in the experiment with HeLa [8] was “inactive”. For the same molecule, in the experiment with HeLa [2], 10 µM produced 17% inhibition. Besides, in the experiment with HeLa [4], the fold change (FC) worked out at 2.01. Also, the 50% effective concentration (EC50) in experiment [5] was 10.8 µM. Moreover, the inhibition with HeLa [9] was above 100%.
Turning to `O=C(NCCc1ccccc1)c1ccc(Oc2ccccc2)cc1`, the fold change (FC) in the experiment with HeLa [4] amounted to 1.4.
Consider `CCOc1ccc(C(=O)NCCc2ccccc2)cc1`, for which the fold change (FC) with HeLa [4] turned out to be 1.56.
Turning to `O=C(NCCC1=CCCCC1)c1ccc(O)c(O)c1`, the inhibition result with HeLa [1], with Huh-7, in the experiment with HeLa [3], in the experiment on Lampyridae, in the experiment on HeLa [6] and with HeLa [7] was “inactive” throughout. Moreover, the inhibition result in the experiment with HeLa [8] was “inactive”. 10 µM produced 42% inhibition in the experiment with HeLa [2]. The fold change (FC) in the experiment on HeLa [4] turned out to be 2.22. Also, the EC50 in experiment [5] was found to be 6.1 µM. The inhibition in the experiment with HeLa [9] is above 100%.
With `COc1ccc(C(=O)NCCCc2ccccc2)cc1`, the fold change (FC) with HeLa [4] came to 1.94.
Still for that read-out and setting: the figure for `C=CCNC(=O)c1ccc(OC)cc1` is 1.28; for `COc1ccc(C(=O)NCCC2=CCCCC2)cc1OC1CCN(C(C)C)CC1` it is 1.36; for `COc1ccc(C(=O)NCCc2ccccc2)cc1` it is 0.5.
